Test results taken from ChEMBL document CHEMBL1201862, “PubChem BioAssay data set” (2004).
Calls of active or inactive are those of the source.

Key:
[1] = viability of HCT116 lacking mutant beta-catenin – cell-based, human colon tumor, dose response (AID 1045); format: functional;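 note: HCT116 colon tumor cells with beta catenin knocked out; cells exposed to compound for 60 hours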
[2] = viability of PTEN-deleted HCT116 cells – cell-based, HCT116 PTEN knockout, dose response (AID 1047); format: functional;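 note: HCT116 colon tumor cells with PTEN knocked out; cells exposed to compound for 60 hours before readout; potency for loss of cell viability measured by luminescence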
[3] = target: Induced myeloid leukemia cell differentiation protein Mcl-1 (Homo sapiens, UniProt Q07820); format: functional
[4] = target: T1, RNA-binding protein pos-1 (Caenorhabditis elegans, UniProt G5EF15); test: disruptors of C. elegans POS-1 RNA interaction – biochemical, fluorescence polarization, dose response (AID 1964);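 note: purified POS-1 fused to maltose binding protein made in E. coli; potency of compounds blocking POS-1 binding to fluorescent RNA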
T1 sequence (G5EF15 whole entry): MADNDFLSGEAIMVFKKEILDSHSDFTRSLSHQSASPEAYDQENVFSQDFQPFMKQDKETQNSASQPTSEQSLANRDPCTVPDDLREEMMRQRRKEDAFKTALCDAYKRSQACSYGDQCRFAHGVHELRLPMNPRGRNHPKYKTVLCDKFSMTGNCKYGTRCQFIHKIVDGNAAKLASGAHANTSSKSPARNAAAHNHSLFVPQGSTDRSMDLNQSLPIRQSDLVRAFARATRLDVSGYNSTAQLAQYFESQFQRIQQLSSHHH

[5] = target: T2, Cytochrome P450 1A2 (Homo sapiens, UniProt P05177);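 note: PubChem cytochrome P450 panel assay, CYP1A2 panel member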
T2 sequence (P05177 whole entry): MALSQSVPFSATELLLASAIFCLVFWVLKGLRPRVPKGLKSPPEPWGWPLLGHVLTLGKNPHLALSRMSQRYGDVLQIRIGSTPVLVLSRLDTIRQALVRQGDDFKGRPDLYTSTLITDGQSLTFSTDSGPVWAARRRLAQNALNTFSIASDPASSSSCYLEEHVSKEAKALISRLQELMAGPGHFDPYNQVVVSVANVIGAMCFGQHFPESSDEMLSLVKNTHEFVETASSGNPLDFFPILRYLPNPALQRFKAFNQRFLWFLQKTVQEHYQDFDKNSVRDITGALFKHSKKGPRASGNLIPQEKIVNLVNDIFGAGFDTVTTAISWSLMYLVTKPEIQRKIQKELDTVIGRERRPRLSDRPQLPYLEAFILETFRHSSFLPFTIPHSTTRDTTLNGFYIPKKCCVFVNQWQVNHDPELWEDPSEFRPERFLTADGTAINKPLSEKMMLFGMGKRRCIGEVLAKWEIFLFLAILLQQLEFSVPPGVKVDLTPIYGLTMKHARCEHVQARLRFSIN

[6] = target: T3, Zinc finger protein mex-5 (Caenorhabditis elegans, UniProt Q9XUB2); test: potency of MEX-5 RNA-binding blockers – biochemical, C. elegans, fluorescence polarization, dose response (AID 1960)
T3 sequence (Q9XUB2 whole entry): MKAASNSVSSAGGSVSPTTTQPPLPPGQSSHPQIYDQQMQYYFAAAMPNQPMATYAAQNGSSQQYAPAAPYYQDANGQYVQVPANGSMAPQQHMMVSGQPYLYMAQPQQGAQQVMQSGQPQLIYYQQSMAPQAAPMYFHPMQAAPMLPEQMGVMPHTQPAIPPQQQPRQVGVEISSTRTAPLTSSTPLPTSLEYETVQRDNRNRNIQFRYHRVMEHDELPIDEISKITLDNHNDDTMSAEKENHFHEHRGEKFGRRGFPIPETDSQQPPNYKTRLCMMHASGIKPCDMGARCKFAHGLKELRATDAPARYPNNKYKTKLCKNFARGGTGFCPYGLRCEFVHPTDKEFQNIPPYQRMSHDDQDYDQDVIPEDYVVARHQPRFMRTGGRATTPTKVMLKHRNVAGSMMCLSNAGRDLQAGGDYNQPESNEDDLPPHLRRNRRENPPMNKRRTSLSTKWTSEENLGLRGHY

[7] = viability of uninfected HEp-2 cells – cell-based, HTS, cytotoxicity control for RSV inhibitor project, dose response (AID 2410); format: functional; settings: human respiratory syncytial virus
[8] = NIH-3T3 fibroblast cytotoxicity, dose response, cytotoxicity control, cell-based, fluorescence, Alamar Blue, secondary assay (AID 2327); format: functional;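 note: NIH-3T3 mouse fibroblasts cultured with fluconazole at 8 µg/mL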
[9] = fluconazole-exposed Candida albicans growth modulators – fluorescence, retest, confirmation (AID 2467); format: functional, cell-based
[10] = tested on: SN12K1; test: cells; format: functional; settings: Homo sapiens
[11] = tested on: P388/ADR; test: cells; format: functional; settings: Mus musculus
[12] = target: T4, Corticotropin-releasing factor receptor 2/Corticotropin-releasing factor-binding protein (Homo sapiens, UniProt P24387+Q13324); test: Dose Response confirmation of uHTS hits for small molecule antagonists of the CRF-binding protein and CRF-R2 receptor complex.; format: functional; settings: read-out: IC50_Mean
T4 sequence (Q13324 whole entry): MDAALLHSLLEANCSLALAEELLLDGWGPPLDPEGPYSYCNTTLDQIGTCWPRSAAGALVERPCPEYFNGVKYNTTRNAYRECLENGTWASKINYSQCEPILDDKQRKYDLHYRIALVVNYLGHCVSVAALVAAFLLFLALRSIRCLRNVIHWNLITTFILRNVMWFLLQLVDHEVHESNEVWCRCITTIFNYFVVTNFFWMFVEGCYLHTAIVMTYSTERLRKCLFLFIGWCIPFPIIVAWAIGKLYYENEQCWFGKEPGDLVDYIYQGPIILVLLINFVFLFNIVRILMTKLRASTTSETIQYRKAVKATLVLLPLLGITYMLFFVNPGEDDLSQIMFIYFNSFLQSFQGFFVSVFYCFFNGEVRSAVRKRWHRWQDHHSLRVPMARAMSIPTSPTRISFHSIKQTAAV
T4 sequence (P24387 whole entry): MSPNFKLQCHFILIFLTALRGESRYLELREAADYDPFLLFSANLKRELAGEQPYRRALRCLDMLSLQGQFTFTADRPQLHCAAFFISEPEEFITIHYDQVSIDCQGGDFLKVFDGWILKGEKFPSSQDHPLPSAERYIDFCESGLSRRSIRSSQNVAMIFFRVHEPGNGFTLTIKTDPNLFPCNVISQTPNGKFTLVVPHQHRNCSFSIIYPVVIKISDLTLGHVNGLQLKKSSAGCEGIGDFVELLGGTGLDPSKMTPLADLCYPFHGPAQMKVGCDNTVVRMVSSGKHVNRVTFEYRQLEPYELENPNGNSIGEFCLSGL

[13] = target: T5, Heat shock factor protein 1 (Mus musculus, UniProt P38532); test: enhancement of HSF1-driven luciferase signal – cell-based, NIH3T3, luminescence, dose retest, confirmation (AID 435004); format: functional;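 note: stress induced by proteasome inhibitor MG132 added 30 min after compound; luciferase reporter driven by HSF1 response element in NIH3T3 cells; actives raise luminescence as potentiators of the MG132 stress response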
T5 sequence (P38532 whole entry): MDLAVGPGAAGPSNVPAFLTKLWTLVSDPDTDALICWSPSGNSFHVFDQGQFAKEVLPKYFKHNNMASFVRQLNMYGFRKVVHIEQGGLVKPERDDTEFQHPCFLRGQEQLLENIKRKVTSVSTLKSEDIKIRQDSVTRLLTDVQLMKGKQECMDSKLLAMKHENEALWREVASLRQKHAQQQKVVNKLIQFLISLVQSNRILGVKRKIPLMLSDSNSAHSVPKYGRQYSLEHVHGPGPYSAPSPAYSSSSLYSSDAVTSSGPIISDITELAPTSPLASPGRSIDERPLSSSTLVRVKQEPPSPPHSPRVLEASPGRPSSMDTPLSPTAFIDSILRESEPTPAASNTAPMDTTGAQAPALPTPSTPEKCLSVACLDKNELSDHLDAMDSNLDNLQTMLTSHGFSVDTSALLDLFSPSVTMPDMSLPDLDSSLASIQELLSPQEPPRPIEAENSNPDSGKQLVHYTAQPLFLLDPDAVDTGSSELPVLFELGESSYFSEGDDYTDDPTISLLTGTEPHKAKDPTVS

[14] = target: T4, Corticotropin-releasing factor receptor 2/Corticotropin-releasing factor-binding protein; test: activators of CRF receptor 2 with binding protein – uHTS hits, confirmation (AID 602473); format: functional; settings: read-out: EC50_Mean
[15] = DRD fibroblast viability loss – cell-based, non-viral oncogenic, luminescence, dose response (AID 1934); format: functional; settings: Homo sapiens
[16] = tested on: BJ; test: cells; format: functional, cell-based; settings: Homo sapiens
[17] = tested on: BJ; test: BJ-TERT fibroblast viability loss – cell-based, RAS-independent, luminescence, dose response (AID 1933); format: functional; settings: Homo sapiens
[18] = reduction of Shn3 3'UTR-driven luciferase in osteoblasts – cell-based, Clone20 osteoblasts, firefly luciferase, cherry-picked, dose response (AID 624132); format: functional;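 note: firefly luciferase luminescence from reporter carrying the Shn3 3'UTR in osteoblasts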
[19] = Trypanosoma cruzi growth suppression in host cells – NIH3T3 host cells, beta-gal luminescence, confirmation (AID 2044); format: functional, cell-based;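 note: intracellular parasites grown in NIH/3T3 mouse fibroblasts as host cells; luminescent beta-galactosidase reporter signal from transgenic T. cruzi replicating inside host cells; inhibitors lower the luminescence signal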
[20] = NIH3T3 cell viability loss – ATP luminescence, mouse fibroblasts, counter-screen, dose response (AID 2010); format: functional, cell-based;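 note: cells exposed to compound for about 90 hours before reading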
[21] = target: Cytochrome P450 3A4 (Homo sapiens, UniProt P08684);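 note: CYP3A4 tested as one member of a cytochrome P450 panel screen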
[22] = target: Cytochrome P450 2C19 (Homo sapiens, UniProt P33261); test: Cytochrome panel assay with activity outcomes. Panel member name: p450-cyp2c19 Compounds with AC50 equal or less than 10 uM are considered active; format: functional; settings: read-out: AC50
Cytochrome P450 2C19, sequence (P33261 whole entry): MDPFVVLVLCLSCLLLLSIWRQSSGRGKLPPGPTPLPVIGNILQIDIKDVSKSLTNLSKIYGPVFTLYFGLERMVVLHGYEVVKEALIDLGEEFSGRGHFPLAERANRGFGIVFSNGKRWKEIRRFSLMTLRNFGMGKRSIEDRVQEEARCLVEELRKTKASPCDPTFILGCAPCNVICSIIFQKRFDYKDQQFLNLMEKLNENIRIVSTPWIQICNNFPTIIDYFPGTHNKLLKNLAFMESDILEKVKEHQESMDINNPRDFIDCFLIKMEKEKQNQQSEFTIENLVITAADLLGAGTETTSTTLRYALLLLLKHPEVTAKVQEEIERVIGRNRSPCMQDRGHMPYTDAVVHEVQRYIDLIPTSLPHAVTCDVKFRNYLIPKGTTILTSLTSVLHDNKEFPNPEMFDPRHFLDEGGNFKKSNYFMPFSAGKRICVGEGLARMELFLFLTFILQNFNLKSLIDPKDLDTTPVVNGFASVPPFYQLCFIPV

Induced myeloid leukemia cell differentiation protein Mcl-1, sequence (Q07820 whole entry, the tested form may be a part): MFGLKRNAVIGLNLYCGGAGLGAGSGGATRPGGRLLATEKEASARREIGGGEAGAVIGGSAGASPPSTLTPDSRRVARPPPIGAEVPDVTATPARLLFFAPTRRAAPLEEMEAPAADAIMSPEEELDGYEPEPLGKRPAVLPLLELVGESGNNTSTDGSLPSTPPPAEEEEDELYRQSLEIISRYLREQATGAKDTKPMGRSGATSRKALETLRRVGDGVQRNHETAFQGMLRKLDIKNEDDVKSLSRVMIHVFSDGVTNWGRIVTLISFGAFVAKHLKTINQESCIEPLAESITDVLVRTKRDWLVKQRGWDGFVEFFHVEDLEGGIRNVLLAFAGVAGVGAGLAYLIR
Cytochrome P450 3A4, sequence (P08684 whole entry): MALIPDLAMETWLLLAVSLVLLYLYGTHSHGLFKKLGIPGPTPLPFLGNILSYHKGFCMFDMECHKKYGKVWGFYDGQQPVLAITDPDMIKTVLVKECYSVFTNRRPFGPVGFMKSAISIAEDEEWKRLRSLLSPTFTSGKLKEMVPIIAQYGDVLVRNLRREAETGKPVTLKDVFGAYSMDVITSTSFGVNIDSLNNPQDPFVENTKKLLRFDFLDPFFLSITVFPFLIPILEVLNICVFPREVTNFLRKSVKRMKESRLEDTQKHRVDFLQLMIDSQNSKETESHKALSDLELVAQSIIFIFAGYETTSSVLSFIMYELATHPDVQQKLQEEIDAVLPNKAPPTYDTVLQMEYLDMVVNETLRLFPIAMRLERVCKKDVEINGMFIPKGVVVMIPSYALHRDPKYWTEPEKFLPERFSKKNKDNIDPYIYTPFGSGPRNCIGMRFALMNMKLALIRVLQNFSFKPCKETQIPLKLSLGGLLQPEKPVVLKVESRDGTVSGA

Cc1cccc(N2CCN(C(=O)c3cn(C)c(=O)c4c3c3ccccc3n4C)CC2)c1C
EC50 [1]: 18.6 µM (active)
EC50 [2]: 19.1 µM (active)

CC(=O)Oc1ccc(NC(=O)CSc2ccccc2)cc1
IC50 [3]: < 0.4 µM (not active)

COc1cc(C2C(C#N)=C(N)OC3=C2C(=O)CCC3)c([N+](=O)[O-])cc1OC (centres undefined)
EC50 [4]: 15.8 µM (active)
AC50 [5]: 31.6 µM (inconclusive)
EC50 [6]: 13.8 µM (active)
IC50 [3]: 3.9 µM (active)

N#Cc1c(NC(=O)CSC2=NCCS2)sc2c1CCCC2
CC50 [7]: 22.5 µM (active)

Cc1cc(C(=O)N/N=C/c2ccc(O)c([N+](=O)[O-])c2)c(C)n1-c1ccc(F)cc1
IC50 [3]: 3.74 µM (active)

Cc1ccc(-c2nnn(CC(=O)N(Cc3ccco3)C(C(=O)NC(C)(C)C)c3ccncc3)n2)o1 (centres undefined)
EC50 [8]: > 150 µM (inactive)
EC50 [9]: > 38 µM (not active)

Cc1nc2sc(C(c3cccc(F)c3)N3CCCC(C)C3)c(O)n2n1 (centres undefined)
EC50 [8]: > 150 µM (inactive)
EC50 [9]: 1.82 µM (active)

COc1cc(/C=C(\C#N)C(N)=O)cc(Br)c1O
GI50 [10]: 95.3 µM (inactive)
GI50 [11]: > 100 µM (inactive)

CCC(Oc1ccccc1)C(=O)Nc1ncc([N+](=O)[O-])s1 (centres undefined)
EC50 [8]: > 160 µM (inactive)
EC50 [9]: 1.5 µM (active)

O=C(NCc1ccc(F)cc1)c1ccc(CS(=O)(=O)Cc2ccccc2F)o1
EC50 [8]: > 150 µM (inactive)
EC50 [9]: 6.51 µM (active)

Cc1ccc(S(=O)(=O)N2CCC(Oc3cccc(C(F)(F)F)c3)CC2)cc1
CC50 [7]: 16.5 µM (active)

O=C(COC(=O)c1c2c(nc3ccccc13)CCCC2)Nc1ccc2c(c1)OCO2
EC50 [2]: 44.5 µM (active)

CC(=O)Nc1sc(N/N=C\c2ccc(O)cc2)nc1-c1cccs1
IC50 [3]: 2.4 µM (active)

CCOC(=O)C1CCCN(C(=O)c2ccc(Cl)c(S(=O)(=O)N3CCCCC3)c2)C1 (centres undefined)
IC50 [12]: > 47.1 µM (inactive)
EC50 [13]: > 260 µM (inactive)
EC50 [14]: > 53 µM (inactive)

COC(=O)c1ccc(Cn2cnc3c(sc4nc(N5CCOCC5)c5c(c43)CCCC5)c2=O)o1
CC50 [7]: > 50 µM (active)

COCCOC(=O)C1=C(C)N(Cc2ccccc2)C(=O)NC1c1ccc(OC)cc1 (centres undefined)
CC50 [7]: 23.2 µM (active)

O=[N+]([O-])c1ccc(N=Nc2c(O)[nH]c3ccc(F)cc23)cc1
CC50 [7]: 26.1 µM (active)

CCc1ccc(/C=C2/SC(=S)N(CCC(=O)NCCCN3CCOCC3)C2=O)cc1
EC50 [15]: > 38 µM (not active)
EC50 [16]: 14.5 µM (active)
EC50 [17]: 1.32 µM (active)

Cc1ccc(S(=O)(=O)c2nc(-c3ccc(F)cc3)oc2SCC(=O)NCC2CCCO2)cc1 (centres undefined)
EC50 [1]: 35.3 µM (active)
EC50 [2]: 83.1 µM (active)

O=C1NC2(CCC3(CC2)OCCO3)NN1c1ccccc1
EC50 [8]: > 160 µM (inconclusive)
EC50 [9]: > 38 µM (not active)

COc1cc(NC(=S)N2CCN(S(=O)(=O)c3ccccc3)CC2)cc(OC)c1
EC50 [8]: > 160 µM (inconclusive)
EC50 [9]: > 38 µM (not active)

CCS(=O)(=O)c1ccc2oc(SCC(=O)N3CCCCC3)nc2c1
AC50 [18]: > 70 µM (inactive)

O=C(NC1CCCCC1)C(c1ccncc1)N(Cc1ccccc1)C(=O)c1ccc(-c2ccccc2)[nH]1 (centres undefined)
CC50 [7]: 7.92 µM (active)
EC50 [19]: 413 nM (active)
EC50 [20]: > 60 µM (not active)

CCCOc1cccc(C(=O)N/N=C/c2coc3ccccc3c2=O)c1
EC50 [8]: 28.2 µM (active)
EC50 [9]: > 38 µM (not active)

COc1ccc(/C=C/C(=O)Oc2ccc(/C=N/NC(=O)c3ccccc3)cc2)cc1OC
EC50 [1]: 25.8 µM (active)
EC50 [2]: 27.7 µM (active)

CC(C)(C)c1ccc(C2CC2C(=O)N/N=C\c2cc3ccccc3nc2Cl)cc1 (centres undefined)
AC50 [21]: 15.8 µM (inconclusive)
CC50 [7]: 20.1 µM (active)
AC50 [5]: 28.2 µM (inconclusive)
AC50 [22]: 11.2 µM (inconclusive)
